Data set [1] concerns the target Muscarinic acetylcholine receptor M4 (Homo sapiens) (UniProt P08173). In words: Positive allosteric modulation of human M4 receptor expressed in CHO cells co-expressing Gqi5 assessed as increase in acetylcholine-induced calcium mobilization incubated with EC20 ACh for 140 secs and subsequent EC80 Ach addition further incubated for 120 secs by Fluo-4-AM dye based fluorescence …. In general terms: Calcium flux is commonly read through the fluorescence of an indicator in the cells.

Data set [2] is described as follows: Brain to plasma partition coefficient, Kp of the compound in Sprague-Dawley rat at 0.2 mg/kg, iv measured for 0.25 hrs. The class given is ADME, organism-based. The following applies: brain and plasma.
The nature of data set [3]: Fraction unbound in rat brain. The format is ADME, tissue-based.
Data set [4] is described as follows: Unbound brain to plasma concentration ratio in Sprague-Dawley rat at 0.2 mg/kg, iv measured for 0.25 hrs. As to conditions: brain and plasma, read-out: K(p,uu,brain). The class given is ADME, organism-based.
The nature of data set [5]: Intrinsic clearance in human microsomes. The format is ADME, Microsome.
Data set [6] in a line: Fraction unbound in rat plasma. The class given is ADME, cell-free.
Data set [7] can be described thus: Fraction unbound in human plasma. The format is ADME, cell-free.
Data set [8] is described as follows: Intrinsic clearance in rat microsomes. The class given is ADME, Microsome.

The results in this text go back to ChEMBL document CHEMBL4359924, “Discovery of a novel 3,4-dimethylcinnoline carboxamide M4 positive allosteric modulator (PAM) chemotype via scaffold hopping” (Bioorg Med Chem Lett, 2019).

Sequence of Muscarinic acetylcholine receptor M4 (Homo sapiens) (P08173 whole entry, looked up): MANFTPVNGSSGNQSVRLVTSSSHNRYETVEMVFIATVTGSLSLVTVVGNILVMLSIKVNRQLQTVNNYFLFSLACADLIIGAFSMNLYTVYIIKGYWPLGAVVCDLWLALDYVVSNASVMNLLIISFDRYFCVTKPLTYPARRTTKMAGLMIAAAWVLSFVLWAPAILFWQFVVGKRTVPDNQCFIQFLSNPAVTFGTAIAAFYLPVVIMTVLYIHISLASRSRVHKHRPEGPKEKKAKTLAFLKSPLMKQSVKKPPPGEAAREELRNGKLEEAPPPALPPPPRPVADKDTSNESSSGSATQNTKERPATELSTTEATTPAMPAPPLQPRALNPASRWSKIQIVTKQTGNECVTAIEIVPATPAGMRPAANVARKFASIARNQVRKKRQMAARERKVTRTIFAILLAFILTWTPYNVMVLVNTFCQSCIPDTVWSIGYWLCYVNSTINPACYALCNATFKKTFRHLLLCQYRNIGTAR

A word on the Emax: it is the maximal effect, on the per cent scale that the assay sets. For `Cc1nnc2ccc(C(=O)NC3CN(c4ccc(OC(F)F)nc4)C3)cc2c1C`, the maximal effect (Emax) in data set [1] is 81%.
The same measure, in the same setting: under `Cc1nnc2ccc(C(=O)NC3CN(c4ncc(C(F)(F)F)cc4Cl)C3)cc2c1C` stands 76%.
Consider `Cc1nnc2ccc(C(=O)NC3CN(c4cnc(C5CC5)cn4)C3)cc2c1C`, for which the Emax in data set [1] worked out at 80%.
On the same count and under the same terms, under `Cc1nnc2ccc(C(=O)NC3CN(c4ncc(C5CC5)cc4Cl)C3)cc2c1C` stands 77%; under `Cc1nnc2ccc(C(=O)NC3CN(c4ncc(OC(C)C)cn4)C3)cc2c1C`, 88%.
The term Kp denotes the ratio of the level in a tissue or fluid to that in plasma or blood. As usually defined, the fraction unbound is free concentration divided by total concentration. Higher therefore signals much free substance. The term CLint scaled denotes the capacity of the preparation to metabolise the compound, expressed as a volume cleared per time. A higher CLint scaled goes with faster metabolism. In data set [2], `Cc1nnc2ccc(C(=O)NC3CN(c4ncc(Cl)cc4F)C3)cc2c1C` returned a Kp at 0.25 h of 0.03. Further, the fraction unbound in data set [3] came out at 0.009; in data set [6] it was 0.026; in data set [7] it was 0.032. Moreover, the Emax in data set [1] was 82%. For the same molecule, the Kp uu at 0.25 h in data set [4] came out at 0.09. The intrinsic clearance (CLint scaled) in data set [5] was found to be 54 mL/min/kg; in data set [8] it was 12 mL/min/kg.
In data set [2], `COc1cc(N2CC(NC(=O)c3ccc4nnc(C)c(C)c4c3)C2)c(Cl)cn1` yielded a Kp at 0.25 h of 0.09. Further, the free fraction (fraction unbound) worked out at 0.023 in data set [3], 0.012 in data set [6] and 0.038 in data set [7]. Further, the maximum response (Emax) in data set [1] came to 74%. The Kp uu at 0.25 h in data set [4] is 0.02. The intrinsic clearance (CLint scaled) is 34 mL/min/kg in data set [5] and 17 mL/min/kg in data set [8].
`Cc1nnc2ccc(C(=O)NC3CN(c4cccc(C(F)(F)F)n4)C3)cc2c1C`: the maximum response (Emax) in data set [1] was found to be 64%.
Still for that read-out and setting: under `Cc1nnc2ccc(C(=O)NC3CN(c4ncccc4Cl)C3)cc2c1C` stands 84%; under `Cc1nnc2ccc(C(=O)NC3CN(c4ccc(C#N)cn4)C3)cc2c1C`, 81%; under `Cc1nnc2ccc(C(=O)NC3CN(c4cccc(F)n4)C3)cc2c1C`, 84%.
The same measure, in the same setting: as for `Cc1nnc2ccc(C(=O)NC3CN(c4ncc(C(F)(F)F)cn4)C3)cc2c1C`, the figure is 77%.
Turning to `Cc1nnc2ccc(C(=O)NC3CN(c4ncc(C#N)cc4Cl)C3)cc2c1C`, the partition ratio (Kp) at 0.25 h in data set [2] came out at 0.04. Further, the unbound share (fraction unbound) in data set [3] came out at 0.042; in data set [6], 0.008; in data set [7] it was 0.03. Further, in data set [1], the Emax worked out at 72%. For the same molecule, the Kp uu at 0.25 h in data set [4] was 0.21. The CLint scaled in data set [5] turned out to be 63 mL/min/kg; in data set [8] it was 17 mL/min/kg.
The molecule `Cc1nnc2ccc(C(=O)NC3CN(c4cc(Cl)ncc4Cl)C3)cc2c1C` gave a Kp at 0.25 h in data set [2] of 0.03. The fraction unbound in data set [3] was determined as 0.036; in data set [6], 0.017; in data set [7], 0.06. In addition, in data set [1], the Emax amounted to 92%. For the same molecule, the Kp uu at 0.25 h in data set [4] came out at 0.06. The CLint scaled in data set [5] was determined as 60 mL/min/kg; in data set [8], 32 mL/min/kg.
On to `Cc1nnc2ccc(C(=O)NC3CN(c4ccc(Cl)cn4)C3)cc2c1C`, for which, in data set [1], the Emax came to 73%.
As for `Cc1nnc2ccc(C(=O)NC3CN(c4cccc(Cl)n4)C3)cc2c1C`, the Emax in data set [1] came to 77%.
Turning to `Cc1nnc2ccc(C(=O)NC3CN(c4ncc(F)cc4Cl)C3)cc2c1C`, the Kp at 0.25 h in data set [2] stood at 0.12. The unbound share (fraction unbound) in data set [3] was determined as 0.036; in data set [6], 0.015; in data set [7], 0.048. Moreover, the maximal effect (Emax) in data set [1] is 80%. For the same molecule, in data set [4], the Kp uu at 0.25 h was 0.29. Also, the CLint scaled in data set [5] was found to be 79 mL/min/kg; in data set [8] it was 17 mL/min/kg.
Take `Cc1nnc2ccc(C(=O)NC3CN(c4ncccc4F)C3)cc2c1C`: the Emax in data set [1] was 83%.
The molecule `Cc1nnc2ccc(C(=O)NC3CN(c4ccc(F)c(F)c4)C3)cc2c1C` gave a concentration ratio (Kp) at 0.25 h in data set [2] below 0.05. Besides, the fraction unbound came to 0.022 in data set [3], 0.002 in data set [6] and 0.051 in data set [7]. For the same molecule, the Emax in data set [1] was found to be 82%. Besides, the Kp uu at 0.25 h in data set [4] was below 0.56. Moreover, the intrinsic metabolic clearance (CLint scaled) came out at 50 mL/min/kg in data set [5] and 26 mL/min/kg in data set [8].
